This is an account of results in patent publication US20170010272A1, “RAPID PHENOTYPE TESTS FOR ANTI[…] SENSITIVITY AND RESISTANCE” (STC, UNM, priority 2014, published 2017).

Read-outs that look alike come from different tables or passages of the source.

Data set [1] addresses deazaflavin (F420) dependent nitroreductase (Ddn) (Mycobacterium tuberculosis, UniProt P9WP15). In words: activation of nitroimidazoles to NO• by Ddn. In kind it is biochemical. Particulars: for Ddn mediated production of ^15NO•: FIG. 4; for activation to NO• by Ddn: FIG. 2.
The conditions of data set [2]: oral pyrazinamide, metabolite pyrazinoic acid formed by host hepatic microsomal deamidase, cited from earlier work.

Chain of deazaflavin (F420) dependent nitroreductase (Ddn) (P9WP15 whole entry): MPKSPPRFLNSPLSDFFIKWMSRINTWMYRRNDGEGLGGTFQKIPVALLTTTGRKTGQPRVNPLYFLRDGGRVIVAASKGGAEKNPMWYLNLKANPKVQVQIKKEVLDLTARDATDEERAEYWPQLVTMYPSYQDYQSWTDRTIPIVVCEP

For the molecule `CC1(COc2ccc(N3CCC(Oc4ccc(OC(F)(F)F)cc4)CC3)cc2)Cn2cc([15N+](=O)[O-])nc2O1` (stereo not drawn) [^15N-nitro-OPC67683], the “Ddn mediated production of ^15NO•” value in data set [1] was “Ddn mediated production of ^15NO•”. Still for that read-out and setting: next, `O=[15N+]([O-])c1cn2c(n1)OC[C@@H](OCc1ccc(OC(F)(F)F)cc1)C2` [^15N-nitro-PA824]: “Ddn mediated production of ^15NO•”.

Regarding `NC(=O)c1cnccn1` [PZA, pyrazinamide], the “time of peak POA (metabolite) levels after oral dosage” value in data set [2] was roughly 6 h; in data set [2] (listed as pyrazinamide) it was “around six”. On to `O=[N+]([O-])c1cn2c(n1)OC[C@@H](OCc1ccc(OC(F)(F)F)cc1)C2` [PA824], for which, in data set [1], the “activation to NO• by Ddn” value is “activation of PA824 and OPC67683 to NO• by Ddn”. The same measure, in the same setting: next, `C[C@]1(COc2ccc(N3CCC(Oc4ccc(OC(F)(F)F)cc4)CC3)cc2)Cn2cc([N+](=O)[O-])nc2O1` [OPC67683]: “activation of PA824 and OPC67683 to NO• by Ddn”.
